Drawing on patent US11420958B2, “Aryl and heteroaryl substituted indole compounds” (BRISTOL-MYERS SQUIBB COMPANY, priority 2017, dated 2022), this text covers IC50 for 25 compounds.

Holding throughout (format): cell-based
The target in one test is human TLR9 (Homo sapiens (Human), UniProt Q9NR96). Description: TLR9 inhibition reporter assay (HEK-Blue, SEAP). The settings on record: HEK-Blue cells overexpressing human TLR9, ODN2006 5 nM stimulation. A digest of the protocol:
(§1)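 After 30 min room-temperature pre-incubation with compound (0.05 nM–50 μM), reporter HEK-Blue lines were activated by ODN2006 5 nM for TLR9, R848 15.9 μM for TLR8 or gardiquimod 7.5 μM for TLR7. SEAP detected after 22 h, 37 °C; inhibition scaled between agonist+DMSO wells and known-inhibitor control.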

Another test addresses human TLR8 (Homo sapiens (Human), UniProt Q9NR97). Description: TLR8 inhibition reporter assay (HEK-Blue, SEAP). Particulars: HEK-Blue cells overexpressing human TLR8, R848 15.9 μM stimulation. In a few lines:
as §1
On the technique in general: A reporter such as luciferase makes a cellular process visible.

Another test addresses human TLR7 (Homo sapiens (Human), UniProt Q9NYK1). Description: TLR7 inhibition reporter assay (HEK-Blue, SEAP). Particulars: HEK-Blue cells overexpressing human TLR7, gardiquimod 7.5 μM stimulation. In a few lines: as §1

human TLR7, sequence (Q9NYK1 27-1049): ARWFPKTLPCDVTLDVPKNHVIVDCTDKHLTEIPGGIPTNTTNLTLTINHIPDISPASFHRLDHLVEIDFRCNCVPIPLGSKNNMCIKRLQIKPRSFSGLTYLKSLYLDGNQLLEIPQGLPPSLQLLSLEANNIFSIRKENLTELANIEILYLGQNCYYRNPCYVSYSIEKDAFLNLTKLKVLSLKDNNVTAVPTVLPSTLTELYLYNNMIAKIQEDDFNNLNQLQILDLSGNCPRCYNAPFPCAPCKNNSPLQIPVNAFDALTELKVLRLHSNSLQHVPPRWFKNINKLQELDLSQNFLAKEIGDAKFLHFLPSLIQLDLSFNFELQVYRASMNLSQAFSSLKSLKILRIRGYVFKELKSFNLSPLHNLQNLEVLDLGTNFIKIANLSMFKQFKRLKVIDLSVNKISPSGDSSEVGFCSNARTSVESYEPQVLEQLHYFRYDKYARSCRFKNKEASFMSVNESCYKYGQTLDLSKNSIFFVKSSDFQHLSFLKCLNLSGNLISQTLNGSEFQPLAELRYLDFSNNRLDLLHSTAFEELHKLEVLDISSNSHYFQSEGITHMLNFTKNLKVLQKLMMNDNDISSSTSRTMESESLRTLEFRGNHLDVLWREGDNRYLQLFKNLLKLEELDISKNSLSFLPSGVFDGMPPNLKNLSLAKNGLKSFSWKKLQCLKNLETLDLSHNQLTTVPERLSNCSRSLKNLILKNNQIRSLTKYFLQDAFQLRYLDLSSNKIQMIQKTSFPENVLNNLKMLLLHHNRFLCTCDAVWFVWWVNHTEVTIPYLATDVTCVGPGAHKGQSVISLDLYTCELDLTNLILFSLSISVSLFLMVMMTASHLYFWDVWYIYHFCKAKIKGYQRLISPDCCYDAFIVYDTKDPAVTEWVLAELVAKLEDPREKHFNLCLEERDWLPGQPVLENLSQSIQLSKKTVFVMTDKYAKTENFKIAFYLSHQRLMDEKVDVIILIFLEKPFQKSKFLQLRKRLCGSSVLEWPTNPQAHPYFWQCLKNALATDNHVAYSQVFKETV
human TLR8, sequence (Q9NR97 27-1041): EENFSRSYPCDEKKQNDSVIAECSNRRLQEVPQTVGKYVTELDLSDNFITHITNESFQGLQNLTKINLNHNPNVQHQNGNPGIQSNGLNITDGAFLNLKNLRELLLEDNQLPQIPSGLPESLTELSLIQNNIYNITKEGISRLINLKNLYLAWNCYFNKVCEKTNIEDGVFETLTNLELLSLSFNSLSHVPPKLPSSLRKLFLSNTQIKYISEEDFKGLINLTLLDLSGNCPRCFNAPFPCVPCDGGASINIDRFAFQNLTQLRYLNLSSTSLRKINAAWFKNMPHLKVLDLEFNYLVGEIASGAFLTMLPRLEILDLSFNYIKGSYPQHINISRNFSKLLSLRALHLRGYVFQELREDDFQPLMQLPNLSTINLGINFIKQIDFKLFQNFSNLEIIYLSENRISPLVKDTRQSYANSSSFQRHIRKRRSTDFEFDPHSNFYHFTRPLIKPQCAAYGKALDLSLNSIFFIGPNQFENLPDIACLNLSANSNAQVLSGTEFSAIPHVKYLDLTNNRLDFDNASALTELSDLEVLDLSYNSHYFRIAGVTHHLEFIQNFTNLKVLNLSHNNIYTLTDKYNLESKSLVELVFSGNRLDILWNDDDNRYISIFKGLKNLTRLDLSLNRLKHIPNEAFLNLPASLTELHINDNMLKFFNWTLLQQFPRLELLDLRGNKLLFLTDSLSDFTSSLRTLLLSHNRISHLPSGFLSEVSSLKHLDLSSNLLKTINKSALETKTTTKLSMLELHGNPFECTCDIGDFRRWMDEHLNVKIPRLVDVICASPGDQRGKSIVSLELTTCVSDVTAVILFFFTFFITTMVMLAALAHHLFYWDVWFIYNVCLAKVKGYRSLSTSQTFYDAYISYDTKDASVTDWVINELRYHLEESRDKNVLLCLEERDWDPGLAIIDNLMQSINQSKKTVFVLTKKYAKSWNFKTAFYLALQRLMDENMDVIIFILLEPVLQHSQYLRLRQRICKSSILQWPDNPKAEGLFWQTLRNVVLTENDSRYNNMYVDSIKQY
human TLR9, sequence (Q9NR96 26-1032): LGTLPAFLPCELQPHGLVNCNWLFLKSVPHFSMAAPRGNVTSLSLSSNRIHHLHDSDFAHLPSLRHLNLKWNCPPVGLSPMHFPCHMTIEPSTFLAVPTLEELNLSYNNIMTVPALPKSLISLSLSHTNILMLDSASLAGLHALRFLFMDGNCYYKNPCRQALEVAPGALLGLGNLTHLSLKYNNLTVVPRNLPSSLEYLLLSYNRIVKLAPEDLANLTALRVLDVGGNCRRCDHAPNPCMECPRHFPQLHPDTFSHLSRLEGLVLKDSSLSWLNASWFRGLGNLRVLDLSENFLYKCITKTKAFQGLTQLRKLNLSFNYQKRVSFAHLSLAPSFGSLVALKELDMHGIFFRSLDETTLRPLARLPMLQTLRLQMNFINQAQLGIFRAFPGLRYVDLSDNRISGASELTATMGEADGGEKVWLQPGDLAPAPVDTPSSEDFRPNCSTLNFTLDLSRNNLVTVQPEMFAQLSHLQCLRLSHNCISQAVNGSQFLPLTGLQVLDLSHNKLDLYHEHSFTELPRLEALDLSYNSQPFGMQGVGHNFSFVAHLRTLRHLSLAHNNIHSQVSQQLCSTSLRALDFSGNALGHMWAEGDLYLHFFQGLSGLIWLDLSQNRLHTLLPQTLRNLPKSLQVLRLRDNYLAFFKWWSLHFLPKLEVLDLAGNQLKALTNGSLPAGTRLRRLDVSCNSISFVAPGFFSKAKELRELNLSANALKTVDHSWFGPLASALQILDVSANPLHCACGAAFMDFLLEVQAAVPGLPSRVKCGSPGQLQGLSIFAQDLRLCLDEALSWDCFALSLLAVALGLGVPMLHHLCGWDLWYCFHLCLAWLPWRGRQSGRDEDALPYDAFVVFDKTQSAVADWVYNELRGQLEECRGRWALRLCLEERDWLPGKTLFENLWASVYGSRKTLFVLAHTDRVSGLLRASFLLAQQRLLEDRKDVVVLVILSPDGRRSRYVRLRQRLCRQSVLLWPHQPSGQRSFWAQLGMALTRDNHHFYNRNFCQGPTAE

By IC50 is commonly meant the midpoint of a concentration-inhibition curve. A higher IC50 goes with a need for much substance. For `CNCCc1nnc(-c2ccc3[nH]c(-c4ccc5ncnn5c4)c(C(C)C)c3c2)o1` [Example 226, 2-(5-(2-([1,2,4]triazolo[1,5-a]pyridin-6-yl)-3-isopropyl-1H-indol-5-yl)-1,3,4-oxadiazol-2-yl)-N-methylethan-1-amine], the IC50 on human TLR9 amounted to 1080 nM; against human TLR8, 5.5 nM; on human TLR7, 46 nM.

In the case of `CC(C)c1c(-c2ccc3ncnn3c2)[nH]c2ccc(-c3nnc([C@@H]4CCCNC4)o3)cc12` [Example 227, (R)-2-(2-([1,2,4]triazolo[1,5-a]pyridin-6-yl)-3-isopropyl-1H-indol-5-yl)-5-(piperidin-3-yl)-1,3,4-oxadiazole], the values for the IC50 against human TLR9, on human TLR8 and on human TLR7 were 892 nM, 9.4 nM and 61 nM, respectively.

With `Cc1cc(-c2[nH]c3ccc(-c4cc5c(s4)CN(C(C)C)CC5)cc3c2C(C)C)ccn1` [Example 228, 6-isopropyl-2-(3-isopropyl-2-(2-methylpyridin-4-yl)-1H-indol-5-yl)-4,5,6,7-tetrahydrothieno[2,3-c]pyridine], the figures for the concentration for half-maximal inhibition (IC50) at human TLR9, at human TLR8 and on human TLR7 were 652 nM, 0.9 nM and 50 nM, respectively.

Turning to `CC(C)c1c(-c2ccnc3[nH]ncc23)[nH]c2ccc(-c3cc4c(s3)CNCC4)cc12` [Example 229, 2-(3-isopropyl-2-(1H-pyrazolo[3,4-b]pyridin-4-yl)-1H-indol-5-yl)-4,5,6,7-tetrahydrothieno[2,3-c]pyridine], the IC50 was 961 nM against human TLR9, 1.5 nM on human TLR8 and 32 nM at human TLR7.

For `Cc1cc(-c2[nH]c3ccc(-c4nnc(C(=O)N5CCC(N)CC5)o4)cc3c2C(C)C)cc(C)n1` [Example 230, (4-aminopiperidin-1-yl)(5-(2-(2,6-dimethylpyridin-4-yl)-3-isopropyl-1H-indol-5-yl)-1,3,4-oxadiazol-2-yl)methanone], the results for the IC50 against human TLR9, at human TLR8 and on human TLR7 were 343 nM, 9.3 nM and 19 nM, respectively.

As to `Cc1cc(-c2[nH]c3ccc(-c4nnc(C5CN6CCC5CC6)o4)cc3c2C(C)C)ccn1` (stereo not drawn) [Example 231, 2-(3-isopropyl-2-(2-methylpyridin-4-yl)-1H-indol-5-yl)-5-(quinuclidin-3-yl)-1,3,4-oxadiazole], the IC50 was 895 nM at human TLR9, 5.9 nM at human TLR8 and 69 nM against human TLR7.

`Cc1cc(-c2[nH]c3ccc(-c4nnc([C@@H]5CCCNC5)o4)cc3c2C(C)C)cc(C)n1` [Example 232, (R)-2-(2-(2,6-dimethylpyridin-4-yl)-3-isopropyl-1H-indol-5-yl)-5-(piperidin-3-yl)-1,3,4-oxadiazole]: the IC50 was determined as 950 nM on human TLR9, 3.2 nM against human TLR8 and 11 nM against human TLR7.

`CC(C)c1c(-c2ccnc3[nH]ncc23)[nH]c2ccc(-c3nc(C(=O)N4CCCN(C)CC4)co3)cc12` [Example 233, (2-(3-isopropyl-2-(1H-pyrazolo[3,4-b]pyridin-4-yl)-1H-indol-5-yl)oxazol-4-yl)(4-methyl-1,4-diazepan-1-yl)methanone]: the results for the IC50 against human TLR9, at human TLR8 and at human TLR7 were 2080 nM, 2.5 nM and 195 nM, respectively.

Take `CC(C)c1c(-c2ccnc3[nH]ncc23)[nH]c2ccc(-c3nc(C(=O)NCCN(C)C)co3)cc12` [Example 234, N-(2-(dimethylamino)ethyl)-2-(3-isopropyl-2-(1H-pyrazolo[3,4-b]pyridin-4-yl)-1H-indol-5-yl)oxazole-4-carboxamide]: the IC50 was found to be 366 nM at human TLR9, 4.5 nM against human TLR8 and 229 nM at human TLR7.

Take `Cc1cc(-c2[nH]c3ccc(-c4ccc(Cl)nc4)cc3c2C(C)C)ccn1` [Example 235, 5-(6-chloropyridin-3-yl)-3-isopropyl-2-(2-methylpyridin-4-yl)-1H-indole]: the IC50 is greater than 50000 nM against human TLR9, 301 nM against human TLR8 and 667 nM on human TLR7.

Regarding `Cc1cc(-c2[nH]c3ccc(-c4ccc(N)nc4)cc3c2C(C)C)cc(C)n1` [Example 236, 5-(2-(2,6-dimethylpyridin-4-yl)-3-isopropyl-1H-indol-5-yl)pyridin-2-amine], the IC50 stood at 655 nM against human TLR9, 2.7 nM against human TLR8 and 13 nM on human TLR7.

As for `Cc1cc(-c2[nH]c3ccc(-c4ccc(N)nc4)cc3c2C(C)C)ccn1` [Example 237, 5-(3-isopropyl-2-(2-methylpyridin-4-yl)-1H-indol-5-yl)pyridin-2-amine], the IC50 is 9730 nM on human TLR9, 2 nM at human TLR8 and 30 nM at human TLR7.

On to `Cc1cc(-c2[nH]c3ccc(-c4ccc(NC(=O)CN(C)C)nc4)cc3c2C(C)C)cc(C)n1` [Example 238, 2-(dimethylamino)-N-(5-(2-(2,6-dimethylpyridin-4-yl)-3-isopropyl-1H-indol-5-yl)pyridin-2-yl)acetamide], for which the IC50 on human TLR9 amounted to 451 nM; against human TLR8, 2.7 nM; at human TLR7 it was 9.7 nM.

As to `CNCCNc1ccc(-c2ccc3[nH]c(-c4cc(C)nc(C)c4)c(C(C)C)c3c2)cn1` [Example 239, N1-(5-(2-(2,6-dimethylpyridin-4-yl)-3-isopropyl-1H-indol-5-yl)pyridin-2-yl)-N2-methylethane-1,2-diamine], the figures for the IC50 against human TLR9, against human TLR8 and against human TLR7 were 589 nM, 2.2 nM and 4.8 nM, respectively.

In the case of `Cc1cc(-c2[nH]c3ccc(-c4nnc(C(=O)N5CCC(NC(C)C)CC5)o4)cc3c2C(C)C)cc(C)n1` [Example 240, (5-(2-(2,6-dimethylpyridin-4-yl)-3-isopropyl-1H-indol-5-yl)-1,3,4-oxadiazol-2-yl)(4-(isopropylamino)piperidin-1-yl)methanone], the IC50 came to 367 nM on human TLR9, 7.5 nM at human TLR8 and 39 nM on human TLR7.

As to `CC(C)c1c(-c2ccc3nccn3c2)[nH]c2ccc(-c3nnc(C(=O)NC4CCN(C(C)C)CC4)o3)cc12` [Example 241, 5-(2-(imidazo[1,2-a]pyridin-6-yl)-3-isopropyl-1H-indol-5-yl)-N-(1-isopropylpiperidin-4-yl)-1,3,4-oxadiazole-2-carboxamide], the IC50 stood at 306 nM at human TLR9, 43 nM against human TLR8 and 43 nM against human TLR7.

`CC(C)c1c(-c2ccc3nccn3c2)[nH]c2ccc(-c3nnc(C(=O)NCCN(C)C)o3)cc12` [Example 242, N-(2-(dimethylamino)ethyl)-5-(2-(imidazo[1,2-a]pyridin-6-yl)-3-isopropyl-1H-indol-5-yl)-1,3,4-oxadiazole-2-carboxamide]: the figures for the IC50 on human TLR9, on human TLR8 and at human TLR7 were 306 nM, 30 nM and 22 nM, respectively.

`FC(F)Cc1c(-c2ccnc3[nH]ncc23)[nH]c2ccc(-c3nnc([C@@H]4CCCNC4)o3)cc12` [Example 243, (R)-2-(3-(2,2-difluoroethyl)-2-(1H-pyrazolo[3,4-b]pyridin-4-yl)-1H-indol-5-yl)-5-(piperidin-3-yl)-1,3,4-oxadiazole]: the IC50 on human TLR9 turned out to be 3260 nM; against human TLR8 it was 1300 nM; against human TLR7, 2280 nM.

On to `Cc1cc(-c2[nH]c3ccc(-c4nnc([C@@H]5CCCN(C(C)C)C5)o4)cc3c2C(C)C)cc(C)n1` [Example 245, (R)-2-(2-(2,6-dimethylpyridin-4-yl)-3-isopropyl-1H-indol-5-yl)-5-(1-isopropylpiperidin-3-yl)-1,3,4-oxadiazole], for which the IC50 against human TLR9 was found to be 304 nM; against human TLR8, 1.5 nM; against human TLR7, 5.4 nM.

Take `Cc1cc(-c2[nH]c3ccc(-c4ccc(N(C)C)nc4)cc3c2C(C)C)ccn1` [Example 246, 5-(3-isopropyl-2-(2-methylpyridin-4-yl)-1H-indol-5-yl)-N,N-dimethylpyridin-2-amine]: the IC50 was greater than 50000 nM against human TLR9, 21 nM against human TLR8 and 56 nM at human TLR7.

Turning to `Cc1cc(-c2[nH]c3ccc(-c4ccc(NC(C)C)nc4)cc3c2C(C)C)ccn1` [Example 247, N-isopropyl-5-(3-isopropyl-2-(2-methylpyridin-4-yl)-1H-indol-5-yl)pyridin-2-amine], the half-inhibitory concentration (IC50) at human TLR9 stood at 5540 nM; against human TLR8, 6.4 nM; against human TLR7, 84 nM.

Take `Cc1cc(-c2[nH]c3ccc(-c4ccc(NC(C)C)nc4)cc3c2C(C)C)cc(C)n1` [Example 248, 5-(2-(2,6-dimethylpyridin-4-yl)-3-isopropyl-1H-indol-5-yl)-N-isopropylpyridin-2-amine]: the IC50 turned out to be 4070 nM against human TLR9, 2.6 nM at human TLR8 and 20 nM at human TLR7.

Consider `Cc1cc(-c2[nH]c3ccc(-c4nnc(C5CN6CCC5CC6)o4)cc3c2C(C)C)cc(C)n1` (stereo not drawn) [Example 250, 2-(2-(2,6-dimethylpyridin-4-yl)-3-isopropyl-1H-indol-5-yl)-5-(quinuclidin-3-yl)-1,3,4-oxadiazole], for which the IC50 is 113 nM against human TLR9, 2.1 nM against human TLR8 and 3.4 nM against human TLR7.

For the compound `Cc1cc(-c2[nH]c3ccc(-c4cc5c(s4)CN(C)CC5)cc3c2C(C)C)ccn1` [Example 251, 2-(3-isopropyl-2-(2-methylpyridin-4-yl)-1H-indol-5-yl)-6-methyl-4,5,6,7-tetrahydrothieno[2,3-c]pyridine], the IC50 against human TLR9 came to 484 nM; against human TLR8 it was 1.4 nM; against human TLR7 it was 35 nM.

For `CNCC(=O)N1CCc2cc(-c3ccc4[nH]c(-c5ccnc(C)c5)c(C(C)C)c4c3)sc2C1` [Example 252, 1-(2-(3-isopropyl-2-(2-methylpyridin-4-yl)-1H-indol-5-yl)-4,7-dihydrothieno[2,3-c]pyridin-6(5H)-yl)-2-(methylamino)ethan-1-one], the IC50 was 788 nM against human TLR9, 12 nM at human TLR8 and 22 nM at human TLR7.
